The subject of one assay is Bacillus subtilis. The experiment in a line: Minimum inhibitory concentration (MIC), nutrient agar. The format is cell-based, Bacillus subtilis (ATCC 8473). As to conditions: Bs, 30° C., 48 hours. The procedure: (§1) The minimum inhibitory concentration (MIC) for compounds of this invention, listed in Table I, is determined for 9 bacteria, using nutrient agar, and 7 yeast and fungi, using malt yeast agar. A one percent solution of a compound is prepared in a mixture of acetone and water. Nutrient agar is prepared at pH 6.8, representing a neutral medium, and at pH 8.2, representing an alkaline medium. The nutrient agars are prepared by adding 23 g of nutrient agar to one-liter of deionized water. In addition, the alkaline medium is prepared by adjusting a 0.04M solution of N-[tris-(hydroxymethyl)methyl]-glycine buffered deionized water with concentrated sodium hydroxide to a pH of […]. Malt yeast agar is prepared by adding 3 g yeast extract and 45 g malt agar per liter of deionized water. The specific agar is dispensed in 30 ml aliquots into 25×200 mm test tubes, capped and autoclaved for 15 minutes at 115° C. The test tubes containing the agar are cooled in a water bath until the temperature of the agar is 48° C. Then, an appropriate amount of the one percent solution of the compound is added (except in the controls where no compound is added) to the respective test tubes so that the final concentrations are 500, 250, 100, 50, 25, 10, 5, 2.5, 1.0 and zero parts per million of the compound in the agar, thus having a known concentration of compound dispersed therein. The contents of the test tubes are then transferred to respective petri plates. After drying for 24 hours, the petri plates containing nutrient agar are inoculated with bacteria and those containing malt yeast agar are inoculated with yeast and fungi.
(§2) The inoculation with bacteria is accomplished by using the following procedure. Twenty-four hour-cultures of each of the bacteria are prepared by incubating the respective bacteria in tubes containing nutrient broth for 24 hours at 30° C. in a shaker. Dilutions of each of the 24 hour-cultures are made so that nine separate suspensions (one for each of the nine test bacteria) are made, each containing 10^8 colony forming units (CFU) per milliliter of suspension of a particular bacteria. Aliquots of 0.3 ml of each of the bacterial suspensions are used to fill the individual wells of Steer's Replicator. For each microbial suspension 0.3 ml was used to fill three wells (i.e., three wells of 0.3 ml each) […] to inoculate both the neutral and alkaline pH nutrient agar petri plates.
(§3) The inoculated petri plates are incubated at 30° C. for 48 hours and then read to determine if the compound which is incorporated into the agar prevented growth of the respective bacteria. […]

The next assay has as its system Enterobacter aerogenes. The assay is described as above. The assay is classed as cell-based, Enterobacter aerogenes (ATCC 13048). Conditions: Ea, 30° C., 48 hours. As to the method: as §1, §2, §3
The test system of a further assay is Escherichia coli. Described as above. The assay is classed as cell-based, Escherichia coli (ATCC 11229). As to conditions: Ec, 30° C., 48 hours. As to the method:
as §1, §2, §3

In another assay the test system is Klebsiella pneumoniae. The description is as above. The format is cell-based, Klebsiella pneumoniae (ATCC 8308). As to conditions: Kp, 30° C., 48 hours. The procedure:
as §1, §2, §3

A further assay has as its system Proteus vulgaris. The assay is described as above. The format is cell-based, Proteus vulgaris (ATCC 881). Conditions: Pv, 30° C., 48 hours. As to the method: as §1, §2, §3
The test system of assay [1] is Pseudomonas aeruginosa (PRD-10). The description is as above. The assay is classed as cell-based, Pseudomonas aeruginosa (ATCC 15442). Conditions: 30° C., 48 hours. As to the method: as §1, §2, §3
Assay [2] relates to Pseudomonas aeruginosa (Pa). The description is as above. The assay is classed as cell-based, Pseudomonas aeruginosa (ATCC 10145). Conditions: 30° C., 48 hours. As to the method: as §1, §2, §3
The test system of a further assay is Salmonella choleraesuis. Described as above. The assay is classed as cell-based, Salmonella choleraesuis (ATCC 10708). As to conditions: Sc, 30° C., 48 hours. As to the method: as §1, §2, §3
The subject of the next assay is Staphylococcus aureus. The description is as above. The assay is classed as cell-based, Staphylococcus aureus (ATCC 6538). Conditions: Sa, 30° C., 48 hours. As to the method: as §1, §2, §3
A further assay deals with Aspergillus niger. In words: Minimum inhibitory concentration (MIC), malt yeast agar. The assay is classed as cell-based, Aspergillus niger (ATCC 16404). As to conditions: An, 30° C., 72 hours (fungi). As to the method: (§4) The minimum inhibitory concentration (MIC) for compounds of this invention, listed in Table I, is determined for 9 bacteria, using nutrient agar, and 7 yeast and fungi, using malt yeast agar. A one percent solution of a compound is prepared in a mixture of acetone and water. Nutrient agar is prepared at pH 6.8, representing a neutral medium, and at pH 8.2, representing an alkaline medium. The nutrient agars are prepared by adding 23 g of nutrient agar to one-liter of deionized water. In addition, the alkaline medium is prepared by adjusting a 0.04M solution of N-[tris-(hydroxymethyl)methyl]-glycine buffered deionized water with concentrated sodium hydroxide to a pH of […]. Malt yeast agar is prepared by adding 3 g yeast extract and 45 g malt agar per liter of deionized water. The specific agar is dispensed in 30 ml aliquots into 25×200 mm test tubes, capped and autoclaved for 15 minutes at 115° C. The test tubes containing the agar are cooled in a water bath until the temperature of the agar is 48° C. […]
(§5) The inoculation with the yeast and fungi is accomplished as follows. […] The petri plates are incubated at 30° C. and read after 48 hours for yeast and 72 hours for fungi. […]

In a further assay the test system is Candida albicans. The description is as above. The assay is classed as cell-based, Candida albicans (ATCC 10231). As to conditions: Ca, 30° C., 48 hours (yeast). As to the method:
as §4, §5

A further assay has as its system Penicillium chrysogenum. The description is as above. The assay is classed as cell-based, Penicillium chrysogenum (ATCC 9480). Conditions: Pc, 30° C., 72 hours (fungi). As to the method:
as §4, §5

For a further assay, the system named is Saccharomyces cerevisiae. Described as above. The assay is classed as cell-based, Saccharomyces cerevisiae (ATCC 4105). As to conditions: Sc, 30° C., 48 hours (yeast). The procedure: as §4, §5
A further assay has as its system Trichoderma viride. Described as above. Conditions: Tv, 30° C., 72 hours (fungi). The format is cell-based, Trichoderma viride (ATCC 8678). As to the method: as §4, §5
The next assay concerns Fusarium oxysporum. The description is as above. The assay is classed as cell-based, Fusarium oxysporum (ATCC 48112). As to conditions: Fo, 30° C., 72 hours (fungi). As to the method:
as §4, §5

On to `CCOP(=O)(C=C(Cl)C#N)OCC` [Compound B, Phosphonic acid, (2-chloro-2-cyanoethenyl)-diethyl ester], for which the “Minimum Inhibitory Concentration (MIC)” value is reported as 25 ppm with Bacillus subtilis (pH 6.8, nutrient agar); above 500 ppm in the assay on Bacillus subtilis (pH 8.2, nutrient agar); 100 ppm with Enterobacter aerogenes (pH 6.8, nutrient agar); above 500 ppm in the assay on Enterobacter aerogenes (pH 8.2, nutrient agar); 50 ppm in the assay with Escherichia coli (pH 6.8, nutrient agar); above 500 ppm with Escherichia coli (pH 8.2, nutrient agar). The “Minimum Inhibitory Concentration (MIC)” value in the assay with Klebsiella pneumoniae (pH 6.8, nutrient agar) is 50 ppm; in the assay on Klebsiella pneumoniae (pH 8.2, nutrient agar), above 500 ppm; with Proteus vulgaris (pH 6.8, nutrient agar), 25 ppm; with Proteus vulgaris (pH 8.2, nutrient agar) it was above 500 ppm; in assay [1] (pH 6.8, nutrient agar), 250 ppm; in assay [1] (pH 8.2, nutrient agar), above 500 ppm. Also, the “Minimum Inhibitory Concentration (MIC)” value is recorded as 250 ppm in [2] (pH 6.8, nutrient agar); above 500 ppm in [2] (pH 8.2, nutrient agar); 25 ppm with Salmonella choleraesuis (pH 6.8, nutrient agar); above 500 ppm in the assay on Salmonella choleraesuis (pH 8.2, nutrient agar); 25 ppm with Staphylococcus aureus (pH 6.8, nutrient agar); above 500 ppm in the assay on Staphylococcus aureus (pH 8.2, nutrient agar). The “Minimum Inhibitory Concentration (MIC)” value in the assay with Aspergillus niger came out at 250 ppm; in the assay with Candida albicans, 100 ppm; in the assay with Penicillium chrysogenum, 100 ppm; in the assay with Saccharomyces cerevisiae, 250 ppm; in the assay on Trichoderma viride it was 100 ppm; with Fusarium oxysporum, 50 ppm.

For the molecule `COP(=O)(C=C(Cl)C#N)OC` [Compound A, Phosphonic acid, (2-chloro-2-cyanoethenyl)-dimethyl ester], the “Minimum Inhibitory Concentration (MIC)” value in the assay with Bacillus subtilis (pH 6.8, nutrient agar) is listed as 25 ppm; in the assay with Bacillus subtilis (pH 8.2, nutrient agar), 500 ppm; in the assay on Enterobacter aerogenes (pH 6.8, nutrient agar) it was 500 ppm; in the assay on Enterobacter aerogenes (pH 8.2, nutrient agar), above 500 ppm; in the assay with Escherichia coli (pH 6.8, nutrient agar), 250 ppm; with Escherichia coli (pH 8.2, nutrient agar) it was above 500 ppm. In addition, the “Minimum Inhibitory Concentration (MIC)” value in the assay with Klebsiella pneumoniae (pH 6.8, nutrient agar) is reported as 250 ppm; with Klebsiella pneumoniae (pH 8.2, nutrient agar) it was 500 ppm; with Proteus vulgaris (pH 6.8, nutrient agar), 250 ppm; with Proteus vulgaris (pH 8.2, nutrient agar), above 500 ppm; in assay [1] (pH 6.8, nutrient agar), 500 ppm; in assay [1] (pH 8.2, nutrient agar), above 500 ppm. Moreover, the “Minimum Inhibitory Concentration (MIC)” value is on record as 500 ppm in assay [2] (pH 6.8, nutrient agar); above 500 ppm in [2] (pH 8.2, nutrient agar); 250 ppm in the assay with Salmonella choleraesuis (pH 6.8, nutrient agar); above 500 ppm in the assay on Salmonella choleraesuis (pH 8.2, nutrient agar); 50 ppm with Staphylococcus aureus (pH 6.8, nutrient agar); above 10 ppm with Staphylococcus aureus (pH 8.2, nutrient agar). The “Minimum Inhibitory Concentration (MIC)” value with Aspergillus niger is 250 ppm; in the assay on Candida albicans it was 100 ppm; in the assay with Penicillium chrysogenum, 50 ppm; in the assay on Saccharomyces cerevisiae, 100 ppm; in the assay on Trichoderma viride, 100 ppm; in the assay on Fusarium oxysporum, 50 ppm.

The record behind these values is US5206227A, “Composition and use of phosphonic acid, (2-halo-2-cyanoethenyl)-dialkyl esters as antimicrobials” (priority 1992, dated 1993).
